The source of these data is publication PMC6705855, “Computational and experimental elucidation of Plasmodium falciparum phosphoethanolamine methyltransferase inhibitors: Pivotal drug target” (PLoS ONE, 2019).

Data set [1] concerns the target T1, Phosphoethanolamine methyltransferase (PfPMT) (Plasmodium falciparum, UniProt Q8IDQ9).
T1 construct: gene PMT; recombinant PfPMT expressed from pET-24a in BL21 (DE3), ~30 kDa
T1 sequence (Q8IDQ9 1-266): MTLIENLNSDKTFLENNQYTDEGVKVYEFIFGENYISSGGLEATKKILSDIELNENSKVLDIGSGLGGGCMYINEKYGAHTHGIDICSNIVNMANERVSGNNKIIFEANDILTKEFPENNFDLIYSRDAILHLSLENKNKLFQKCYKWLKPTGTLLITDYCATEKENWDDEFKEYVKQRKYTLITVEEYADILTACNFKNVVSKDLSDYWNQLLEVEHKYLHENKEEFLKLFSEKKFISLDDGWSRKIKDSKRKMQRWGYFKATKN
Nature of the data set: enzyme-coupled SAM methyltransferase colorimetric assay ([…] nm), Michaelis-Menten kinetics with varied pEth. The class given is biochemical.

Substrate in the data set “purified protein”: NCCOP(=O)(O)O
As to the kind of experiment: purified protein. To be noted: SAM substrate (phosphobase) site. Type of data set: biochemical, Plasmodium falciparum.

Like-named read-outs stand apart in the source and are kept apart here.

`NC(Cc1cc(=O)nc(-c2ccccn2)[nH]1)c1ccc(F)cc1` (stereo not drawn) [ASN.1, 6-[Amino-2-(4-fluoro-phenyl)-ethyl]-pyridin-2-yl-1H-pyrimidin-4-one]: the Ki – broadly, a measure of affinity in units of concentration, obtained from inhibition or displacement – in data set [1] amounted to 1200 nM.

In the case of `COc1ccc(CCNC(=O)CNCC2CCCO2)cc1OC` (stereo not drawn) [ASN.3, N-[2-(3,4-Dimethoxy-phenyl)-ethyl]-2-[(tetrahydro-furan-2-ylmethyl)-amino]-acetamide], in data set [1] (read-out: Ki), the Ki worked out at 2200 nM.

B1: Phosphoethanolamine methyltransferase (PfPMT) (Plasmodium falciparum 3D7) (protein)
chain: T1 sequence (Q8IDQ9 1-266)
notes: recombinant PfPMT expressed from pET-24a in BL21 (DE3), ~30 kDa
Take B1: in “purified protein”, the Km – broadly, the substrate concentration at which the rate is half of its maximum – turned out to be 52.4 µM.
